Measured values: ChEMBL document CHEMBL1201862, “PubChem BioAssay data set” (2004)
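Protocol summary: plate cells (96-well), add compound at 5 concentrations, incubate 48 h, interpolate endpoints linearly. GI50 = concentration required for 50% inhibition of growth.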 Activity calls are given as the source filed them. No stated cut-off is given here; in the data, active = GI50 up to about 1.1 µM and inactive = higher.

Tests used:
Assay in all cases: NCI tumour cell line growth inhibition, 48 h
DMS-114 = tested on: DMS-114
LXFL 529 = tested on: LXFL 529
SNB-78 = tested on: SNB-78
XF498 = tested on: XF498
DMS-273 = tested on: DMS-273
DLD-1 = tested on: DLD-1
HOP-18 = tested on: HOP-18
M19-MEL = tested on: M19-MEL
RXF 631 = tested on: RXF 631

Measured: GI50

CCCCCCCCCCCc1c(O)c(=O)c2c(oc3c(=O)c(CCCCCCCCCCC)c(O)c(=O)c3n2-c2ccc(N(C)C)cc2)c1=O
inactive: DMS-114 24.8 µM | LXFL 529 21.2 µM | SNB-78 55.2 µM | XF498 21.5 µM | DMS-273 22.8 µM | DLD-1 18.8 µM | HOP-18 22.6 µM

Cc1ccc(NC(=O)C(=O)CC(=O)c2c(C)[n+]([O-])c3ccccc3[n+]2[O-])cc1
inactive: DMS-114 18.2 µM | LXFL 529 35.2 µM | M19-MEL 16.4 µM | SNB-78 49.4 µM | RXF 631 36.5 µM | DMS-273 25.9 µM | HOP-18 30.9 µM

Nc1nc(Cl)c2ncn(CCCC(c3ccccc3)P(=O)(O)O)c2n1 (configuration not stated)
inactive: DMS-114 > 100 µM | LXFL 529 > 100 µM | M19-MEL > 100 µM | SNB-78 > 100 µM | DMS-273 > 100 µM | DLD-1 > 100 µM | HOP-18 > 100 µM

Clc1ccc(/N=N/c2nc3ccccc3nc2/N=N/c2ccc(Cl)cc2Cl)c(Cl)c1
inactive: DMS-114 > 100 µM | LXFL 529 78.5 µM | M19-MEL > 100 µM | SNB-78 > 100 µM | XF498 > 100 µM | DLD-1 > 100 µM

COc1cc(/C=C/C(=O)c2sc(NNC(C)=O)nc2C)ccc1O
inactive: DMS-114 > 100 µM | SNB-78 > 100 µM | RXF 631 > 100 µM | DMS-273 > 100 µM | DLD-1 > 100 µM | HOP-18 > 100 µM

O=C(CCCCCCCCC(=O)OCCCn1cc(C(=O)NC(=O)OCc2ccccc2)c(=O)[nH]c1=O)OCCCn1cc(C(=O)NC(=O)OCc2ccccc2)c(=O)[nH]c1=O
inactive: M19-MEL > 100 µM | SNB-78 > 100 µM | RXF 631 > 100 µM | DMS-273 > 100 µM | DLD-1 > 100 µM | HOP-18 > 100 µM

C/C(=N\NC(=O)CC#N)c1c(O)cc(C)oc1=O
inactive: LXFL 529 > 100 µM | M19-MEL > 100 µM | SNB-78 > 100 µM | RXF 631 > 100 µM | DLD-1 > 100 µM | HOP-18 > 100 µM

CCCCC[C@@H]1CCCC2NC(CCCCCO[Si](c3ccccc3)(c3ccccc3)C(C)(C)C)CCC21 (some centres not stated)
inactive: DMS-114 13 µM | M19-MEL 17.3 µM | SNB-78 15.1 µM | RXF 631 11.5 µM | DMS-273 16.8 µM | DLD-1 13.2 µM

CC(C)S(=O)(=O)n1c(N)nc2ccc(/C(=N/O)c3ccccc3)cc21 [ENVIROXIME]
inactive: DMS-114 16.9 µM | LXFL 529 41.4 µM | M19-MEL 34 µM | SNB-78 36.4 µM | DMS-273 31.4 µM | DLD-1 26.2 µM

O=C(O)CC(NC(=O)CP(=O)(O)O)C(=O)O (configuration not stated)
inactive: DMS-114 741 µM | M19-MEL 97.9 µM | SNB-78 973 µM | XF498 596 µM | DMS-273 119 µM | DLD-1 66.4 µM | HOP-18 3100 µM

O=C1C(Cl)=C(Cl)C(=O)N1c1ccc(F)cc1 [FLUOROIMIDE]
inactive: DMS-114 19.7 µM | LXFL 529 15.9 µM | M19-MEL 19.5 µM | SNB-78 27 µM | XF498 19.9 µM | RXF 631 28.9 µM | DMS-273 25.8 µM | DLD-1 18.2 µM | HOP-18 21.1 µM

CCSc1nc(N2CCCC2)s[s+]1.[O-][Cl+3]([O-])([O-])[O-]
inactive: DMS-114 17.6 µM | LXFL 529 22.7 µM | M19-MEL 2.3 µM | SNB-78 74.8 µM | XF498 31 µM | DMS-273 49.5 µM | DLD-1 85.3 µM | HOP-18 > 100 µM

CCN(CC)c1ccc(/N=C2\C=C(Cl)C(=O)c3ncccc32)c(C)c1
inactive: DMS-114 2.67 µM | M19-MEL 4.68 µM | SNB-78 13.1 µM | XF498 5.78 µM | RXF 631 13.5 µM | DMS-273 3.73 µM | DLD-1 4.06 µM | HOP-18 3.08 µM

CC(C)NC1CCCCC2c3ccccc3C12O (configuration not stated)
inactive: DMS-114 > 100 µM | LXFL 529 > 100 µM | M19-MEL > 100 µM | SNB-78 > 100 µM | XF498 > 100 µM | DMS-273 > 100 µM | HOP-18 > 100 µM

C1=c2ccccc2=C2C(=C(c3ccccc3)C(c3ccccc3)=NN2c2ccccc2)S1
inactive: DMS-114 > 100 µM | LXFL 529 > 100 µM | M19-MEL > 100 µM | SNB-78 > 100 µM | DMS-273 > 100 µM | DLD-1 > 100 µM | HOP-18 > 100 µM

O=C1NC2OCC(O)C(O)C2O1 (configuration not stated)
inactive: DMS-114 > 100 µM | LXFL 529 > 100 µM | M19-MEL > 100 µM | SNB-78 > 100 µM | DMS-273 > 100 µM | DLD-1 > 100 µM | HOP-18 > 100 µM

COCN/C(N)=N/C#N
inactive: DMS-114 18.4 µM | LXFL 529 > 100 µM | M19-MEL 41.7 µM | SNB-78 > 100 µM | DMS-273 27.9 µM | DLD-1 42 µM | HOP-18 > 100 µM

O=C1[C@H]2ON(c3ccccc3)C(c3cccc([N+](=O)[O-])c3)[C@H]2C(=O)N1c1ccc(Cc2ccc(N3C(=O)[C@@H]4ON(c5ccccc5)C(c5cccc([N+](=O)[O-])c5)[C@@H]4C3=O)cc2)cc1 (some centres not stated)
inactive: DMS-114 > 100 µM | LXFL 529 > 100 µM | M19-MEL > 100 µM | SNB-78 > 100 µM | DMS-273 > 100 µM | DLD-1 > 100 µM | HOP-18 > 100 µM

O=c1c(Sc2c(O)c3ccccc3c3ccccc3c2=O)c(O)c2ccccc2c2ccccc12
inactive: DMS-114 25.4 µM | LXFL 529 30 µM | M19-MEL 31.8 µM | RXF 631 37.2 µM | DMS-273 25.1 µM | DLD-1 51.3 µM | HOP-18 24.2 µM

C=CCc1cc(OC)c2c(c1)C(O)CC(c1ccc(OC)c(OC)c1)O2 (configuration not stated)
inactive: DMS-114 59.8 µM | LXFL 529 > 100 µM | M19-MEL > 100 µM | SNB-78 > 100 µM | DMS-273 > 100 µM | DLD-1 > 100 µM | HOP-18 > 100 µM

CCCCCC#COC1CC(C)CC[C@@H]1C(C)C (some centres not stated)
inactive: LXFL 529 97.9 µM | M19-MEL 48 µM | SNB-78 > 100 µM | DMS-273 65 µM | DLD-1 41.3 µM | HOP-18 > 100 µM

CCCCc1c2c(nc3c1CCC/C3=C\c1ccccc1)C(=O)C(CN(C)C)CC2 (configuration not stated)
inactive: DMS-114 17.7 µM | LXFL 529 8.38 µM | M19-MEL 16.7 µM | SNB-78 20.7 µM | XF498 14.9 µM | DMS-273 20.2 µM | DLD-1 17.1 µM | HOP-18 23.6 µM

COc1ccc(O)c2c1C(=O)CCCC2=O
inactive: DMS-114 > 100 µM | LXFL 529 > 100 µM | M19-MEL > 100 µM | SNB-78 > 100 µM | XF498 > 100 µM | RXF 631 > 100 µM | DMS-273 > 100 µM | DLD-1 > 100 µM

CCCN(CCC)c1c([N+](=O)[O-])cc(C(=O)N(CC)CC)cc1[N+](=O)[O-]
inactive: DMS-114 10.9 µM | LXFL 529 19.1 µM | M19-MEL 20.7 µM | SNB-78 31 µM | DMS-273 17.6 µM | DLD-1 17.6 µM

Nc1nc(SCC(=O)c2ccccc2)c2[nH]cnc2n1
inactive: DMS-114 > 100 µM | M19-MEL > 100 µM | XF498 > 100 µM | DMS-273 > 100 µM | DLD-1 > 100 µM | HOP-18 > 100 µM
